Values of other authors in US20070231316A1, “Treatment of Cognitive Dysfunction in Lupus” (priority 2003, published 2007).

Tests used:
[1] = NP-SLE patients, after treatment
[2] = in vivo

Q: With O=P1(N(CCCl)CCCl)NCCCO1 (stereo not drawn) [cyclophosphamide] as the molecule, how does the “GFAP level in CSF” value [1] read?
A: Its value is “marked decline”.

Q: What about the “NFL level in CSF” value [1] of the same molecule?
A: The value was “marked decline”.

Q: With lipopolysaccharide [LPS] as the molecule, how does the “effect on blood-brain barrier” value [2] read?
A: Its value is “temporary opening of the blood-brain barrier”.
